Data reported in patent publication US20240315993A1, “ANTIPARASITIC COMPOUNDS” (Intervet Inc., priority 2021, published 2024).
pEC50: −log10 of the molar value.

Legend:
[1] = system: Copepodids (juvenile sea lice stage of Lepeophtheirus salmonis); assay: Juvenile sea lice contact assay; details: ~24 h
Method: Copepodids (juvenile sea lice stage of Lepeophtheirus salmonis) were exposed to seawater spiked with declining concentrations of a test compound (dissolved in a DMSO sea-water mixture). Sea lice inhibition (% of dead+damaged copepodids) was assessed after approximately 24 hours of continuous exposure. The vitality of used parasites was confirmed in a negative (solvent) control group.

[2] = system: Mobile stages of sea lice (pre-adults, adults of Lepeophtheirus salmonis); assay: Adult sea lice contact assay; details: pre-adults/adults, assessed after ~1 and 24 h, read-out: EC50 (sea lice inhibition, dead+damaged)
Method: Mobile stages of sea lice (i.e., pre-adults, adults of Lepeophtheirus salmonis) were exposed to seawater spiked with declining concentrations of a test compound (dissolved in a PEG sea-water mixture). Sea lice inhibition (% of dead+damaged sea lice) was assessed after approximately 1 and 24 hours of continuous exposure in comparison to a negative (solvent) control group.

[3] = system: juvenile soft ticks (Ornithodoros moubata); assay: Guinea pig - efficacy against argaside tick; assay type: in vivo; details: for duration of efficacy, subcutaneous compared with oral administration: 5 mg/kg, ticks and bed bugs
Method: (§1) Guinea pigs were locally co-infested (using an infestation device on a shaved skin area) with juvenile soft ticks (Ornithodoros moubata) and bed bugs (Cimex lectularius) before the treatment day (Day 0) to provide a baseline-negative control value. Guinea pigs were treated orally (by gavage) or subcutaneously at a dose of 5 mg/kg bodyweight of a test compound in a formulation of 10% DMF/Emulsifier+90% Aqua ad injectabilia.
(§2) Repeated local infestations with both parasites were performed at different time points after treatment. Within approximately 45 min after each infestation ten engorged ticks and ten engorged bed bugs were • collected and the percentage of dead and damaged parasites per species were • assessed approximately 24 hours following collection. The efficacy was • calculated as % of inhibition ‘killed+damaged’ parasites in a treated group in comparison to the baseline-negative control (using a modified Schneider Orelli's formula).
(§3) Results: Activity of the test compounds at different evaluation time-points (≥80% inhibition were found active): […]

[4] = system: bed bugs (Cimex lectularius); assay: Guinea pig - efficacy against bed bug; assay type: in vivo
Method: as §1, §2, §3

Rhipicephalus microplus = assay: Cattle - efficacy against one-host tick; assay type: in vivo; details: 1 mg/kg topical (Compound 4: spray solution; others: DMA 92%/DEET 8% pour-on)
Method: Cattle were infested (whole body) with up to 3000 Rhipicephalus microplus larvae two or three times per week before and after the treatment day (Day 0). Cattle of treatment groups were treated subcutaneously or topically (spray or pour-on) at a dose of 1 mg/kg bodyweight of a test compound. As subcutaneous formulation either 2-pyrrolidon 50%/Tween 80 50% or NMP 60%/PEG300 40% was used. As topical formulation either a spray solution (DMF/Emulsifier 2%/tap water 98%) (Compound 4) or a DMA 92%/DEET 8% pour-on solution (all other compounds) or a pour-on solution containing Imwitor 988 (20%)+Miglyol 840 (QS) (Compound 453 and Compound 466) or a pour-on solution containing Miglyol 840 (QS) (Compound 453) was used. Cattle of the negative control group received only the formulation excipients of the respective administration route.
Fully engorged female ticks dropping from cattle were collected daily after treatment and counted in treatment and control groups. Efficacy was expressed using the standard ADEQ analysis method (ADEQ calculation in accordance with WAAVP guidelines for evaluating the efficacy of acaricides against ticks on ruminants; Veterinary parasitology 136 (2006) 29-43). Compounds with efficacy ≥80 percent were found active/effective. Onset of efficacy means the first Day with efficacy ≥80 percent. Duration of efficacy means the last Day with efficacy ≥80 percent.

Dermacenter variabilis = assay: Cattle - efficacy against multi-host ticks (Dermacenter variabilis); assay type: in vivo
Method: (§4) Cattle were treated subcutaneously or topically (pour-on) at a dose of 5 mg/kg bodyweight of a test compound (Day 0). As subcutaneous formulation NMP 60%/PEG300 40% was used, and as pour-on formulation DMA 92%/DEET 8% was used. Cattle of the negative control group received only the formulation excipients of both formulations (SC, pour-on).
(§5) Cattle were locally infested with 30 to 40 unfed adult ticks each of Rhipicephalus appendiculatus and Dermacenter variabilis (for both species sex ratio 1:1), by placing the ticks in an ear sleeve (R. appendiculatus) or a stockinet patch attached to the body side (D. variabilis) once before treatment, and at different time points after treatment. Free (i.e., non-attached ticks) were removed from ear sleeves/stockinet patches two days after each infestation and were excluded from the efficacy calculation.
(§6) Compounds with efficacy ≥80 percent were found active.

[5] = system: Rhipicephalus appendiculatus; assay: Cattle - efficacy against multi-host ticks (Rhipicephalus appendiculatus); assay type: in vivo
Method: as §4, §5, §6

Lepeophtheirus salmonis = assay: Salmon - in vivo efficacy against sea lice using gavage administration; details: 5 mg/kg once by gavage; for therapeutic efficacy against juvenile sea lice (% reduction vs control): day -3 infestation; for therapeutic efficacy against juvenile sea lice (% reduction vs control) / prophylactic efficacy at re-infestation on Day 17 (% reduction vs control): counted around day 28; for therapeutic efficacy against (pre-)adult sea lice (% reduction vs control): day -28 infestation, counted day 7
Method: Salmon (Salmo solar) were treated once orally by gavage at a dose of 5 mg/kg bodyweight per fish (Day 0). As formulation DMSO 5%/fish oil 95% was used. Salmon of the negative control group received only the excipients of the formulation.
The fish were infested with Lepeophtheirus salmonis copepodids twice before treatment (i.e., around day −28 and day −3) and once after treatment (i.e., day 17).
Around day 28 (end of animal phase), fish were euthanized, and lice on each fish were classified ((pre-)adult or juvenile stage) and counted. […] Efficacy is expressed as a % reduction of sea lice in treated groups versus a control group, using the Abbott's formula.

[6] = 5 mg/kg subcutaneous, after 7 days
[7] = 5 mg/kg subcutaneous, after 10 days
[8] = 5 mg/kg subcutaneous, therapeutic, Day 2
[9] = 5 mg/kg topical pour-on, re-infested after 7 days
[10] = 5 mg/kg topical pour-on, re-infested after 28 days
[11] = 5 mg/kg topical pour-on, therapeutic, Day 2
[12] = 5 mg/kg, both administration routes (topical, subcutaneous)

Compound: O=C(Nc1ccc(F)cc1F)c1cc(NC(=O)[C@H]2[C@H](c3cc(Cl)cc(Cl)c3)C2(Cl)Cl)ccc1F [Compound 447]
- inhibition at 0.01 µM ([1]; Lepeophtheirus salmonis, 10 nM in seawater, read-out: Sea lice inhibition (% of dead+damaged copepodids)): 100%
- pEC50 [2]: ≥ 8.00
- activity against tick nymphs (≥80% inhibition, killed+damaged) ([3]; 5 mg/kg oral, Day 0): immediate activity
- activity against tick nymphs (≥80% inhibition, killed+damaged) ([3]; 5 mg/kg oral, after 7 days): activity
- activity against tick nymphs (≥80% inhibition, killed+damaged) ([3]; 5 mg/kg subcutaneous, Day 0): immediate activity
- activity against tick nymphs (≥80% inhibition, killed+damaged) [3, 6]: activity
- activity against tick nymphs (≥80% inhibition, killed+damaged) [3, 7]: activity
- activity against tick nymphs (≥80% inhibition, killed+damaged) ([3]; 5 mg/kg subcutaneous, after 14 days): activity
- activity against tick nymphs (≥80% inhibition, killed+damaged) ([3]; 5 mg/kg subcutaneous, after 17 days): activity
- duration of efficacy, subcutaneous compared with oral administration [3]: longer duration of efficacy
- activity against bed bugs (≥80% inhibition, killed+damaged) ([4]; 5 mg/kg oral, Day 0): immediate activity
- activity against bed bugs (≥80% inhibition, killed+damaged) ([4]; 5 mg/kg oral, after 7 days): activity
- activity against bed bugs (≥80% inhibition, killed+damaged) ([4]; 5 mg/kg subcutaneous, Day 0): immediate activity
- activity against bed bugs (≥80% inhibition, killed+damaged) [4, 6]: activity
- activity against bed bugs (≥80% inhibition, killed+damaged) [4, 7]: activity
- duration of efficacy (last Day with efficacy ≥80 percent) (Rhipicephalus microplus): ≥ 57 days
- onset of efficacy (first Day with efficacy ≥80 percent) (Rhipicephalus microplus): 4 days
- efficacy ≥80 percent against Dermacenter variabilis (Dermacenter variabilis; 5 mg/kg subcutaneous, re-infested after 7 days): prophylactic efficacy
- efficacy ≥80 percent against Dermacenter variabilis (Dermacenter variabilis; 5 mg/kg subcutaneous, re-infested after 28 days): prophylactic efficacy
- efficacy ≥80 percent against Dermacenter variabilis (Dermacenter variabilis; [8]): therapeutic efficacy
- efficacy ≥80 percent against Dermacenter variabilis (Dermacenter variabilis; [9]): prophylactic efficacy
- efficacy ≥80 percent against Dermacenter variabilis (Dermacenter variabilis; [10]): prophylactic efficacy
- efficacy ≥80 percent against Dermacenter variabilis (Dermacenter variabilis; [11]): therapeutic efficacy
- effective in treating existing tick infestations (Dermacenter variabilis; [12]): 100%
- efficacy ≥80 percent against Rhipicephalus appendiculatus ([5]; 5 mg/kg subcutaneous, re-infested after 21 days): prophylactic efficacy
- efficacy ≥80 percent against Rhipicephalus appendiculatus [5, 8]: therapeutic efficacy
- efficacy ≥80 percent against Rhipicephalus appendiculatus [5, 9]: prophylactic efficacy
- efficacy ≥80 percent against Rhipicephalus appendiculatus ([5]; 5 mg/kg topical pour-on, re-infested after 14 days): prophylactic efficacy
- efficacy ≥80 percent against Rhipicephalus appendiculatus [5, 10]: prophylactic efficacy
- efficacy ≥80 percent against Rhipicephalus appendiculatus ([5]; 5 mg/kg topical pour-on, re-infested after 35 days): prophylactic efficacy
- efficacy ≥80 percent against Rhipicephalus appendiculatus [5, 11]: therapeutic efficacy
- effective in treating existing tick infestations [5, 12]: 100%

Compound: Cc1cc(NC(=O)c2cc(NC(=O)[C@H]3[C@H](c4cc(Cl)cc(Cl)c4)C3(Cl)Cl)ccc2Cl)ncc1F [Compound 454]
- inhibition at 0.1 µM ([1]; Lepeophtheirus salmonis, 100 nM in seawater, read-out: Sea lice inhibition (% of dead+damaged copepodids)): 100%
- pEC50 [2]: ≥ 8.00
- activity against tick nymphs (≥80% inhibition, killed+damaged) ([3]; 5 mg/kg oral, Day 0): immediate activity
- activity against tick nymphs (≥80% inhibition, killed+damaged) ([3]; 5 mg/kg subcutaneous, Day 0): immediate activity
- activity against tick nymphs (≥80% inhibition, killed+damaged) [3, 6]: activity
- activity against tick nymphs (≥80% inhibition, killed+damaged) [3, 7]: activity
- duration of efficacy, subcutaneous compared with oral administration [3]: longer duration of efficacy
- activity against bed bugs (≥80% inhibition, killed+damaged) ([4]; 5 mg/kg oral, Day 0): immediate activity
- activity against bed bugs (≥80% inhibition, killed+damaged) ([4]; 5 mg/kg subcutaneous, Day 0): immediate activity

Compound: Cc1c(F)cc(NC(=O)C2C(c3cc(Cl)cc(Cl)c3)C2(Cl)Cl)cc1C(=O)Nc1ncc(F)cc1F (stereo not shown) [Compound 457]
- therapeutic efficacy against juvenile sea lice (% reduction vs control) (Lepeophtheirus salmonis): 100%
- therapeutic efficacy against (pre-)adult sea lice (% reduction vs control) (Lepeophtheirus salmonis): 80%

Compound: O=C(Nc1c(F)cccc1F)c1cc(NC(=O)C2C(c3cc(Cl)cc(Cl)c3)C2(Cl)Cl)ccc1Cl (stereo not shown) [Compound 458]
- prophylactic efficacy at re-infestation on Day 17 (% reduction vs control) (Lepeophtheirus salmonis): 80%
- therapeutic efficacy against juvenile sea lice (% reduction vs control) (Lepeophtheirus salmonis): 100%
- therapeutic efficacy against (pre-)adult sea lice (% reduction vs control) (Lepeophtheirus salmonis): 100%

Compound: O=C(Nc1ncc(F)cc1F)c1cc(NC(=O)C2C(c3cc(Cl)cc(Cl)c3)C2(Cl)Cl)ccc1F (stereo not shown) [Compound 463]
- Sea lice inhibition (% of dead+damaged copepodids) ([1]; 1 nM in seawater): 100%
- therapeutic efficacy against juvenile sea lice (% reduction vs control) (Lepeophtheirus salmonis): 100%
- therapeutic efficacy against (pre-)adult sea lice (% reduction vs control) (Lepeophtheirus salmonis): 100%

Compound: O=C(Nc1ncc(F)cc1F)c1cc(NC(=O)C2C(c3cc(Cl)cc(Cl)c3)C2(Cl)Cl)cc(F)c1Cl (stereo not shown) [Compound 464]
- prophylactic efficacy at re-infestation on Day 17 (% reduction vs control) (Lepeophtheirus salmonis): 100%
- therapeutic efficacy against juvenile sea lice (% reduction vs control) (Lepeophtheirus salmonis): 100%
- therapeutic efficacy against (pre-)adult sea lice (% reduction vs control) (Lepeophtheirus salmonis): 100%

Compound: O=C(Nc1ncc(F)cc1F)c1cc(NC(=O)C2C(c3cc(F)c(F)c(F)c3)C2(Cl)Cl)ccc1Cl (stereo not shown) [Compound 478]
- therapeutic efficacy against juvenile sea lice (% reduction vs control) (Lepeophtheirus salmonis): 80%
- therapeutic efficacy against (pre-)adult sea lice (% reduction vs control) (Lepeophtheirus salmonis): 100%

Compound: O=C(Nc1ncc(F)cc1F)c1cc(NC(=O)C2C(c3cc(F)c(F)c(F)c3)C2(Cl)Cl)ccc1F (stereo not shown) [Compound 479]
- therapeutic efficacy against juvenile sea lice (% reduction vs control) (Lepeophtheirus salmonis): 80%
- therapeutic efficacy against (pre-)adult sea lice (% reduction vs control) (Lepeophtheirus salmonis): 100%

Compound: O=C(Nc1ncc(F)cc1F)c1c(F)ccc(NC(=O)C2C(c3cc(Cl)cc(Cl)c3)C2(Cl)Cl)c1F (stereo not shown) [Compound 480]
- therapeutic efficacy against juvenile sea lice (% reduction vs control) (Lepeophtheirus salmonis): 100%
- therapeutic efficacy against (pre-)adult sea lice (% reduction vs control) (Lepeophtheirus salmonis): 100%
